Counter-ions that a name gives are not always drawn.
Columns and labels:
[1] = Plasma pharmacokinetics in Sprague-Dawley rats after IV dose; conditions: rat, in vivo
Method: The pharmacokinetics were then compared for free drug and membrane entrapped GI147211 liposomes dosed at 5 mg/kg in Sprague Dawley rats. Rats were dosed at 1 mg/kg to compare free GI147211 to passive and actively loaded liposomes.
Pharmacokinetic studies were carried out on various liposomal formulations of GI147211 in rats and mice by IV bolus administration. Plasma samples were precipitated with acetonitrile and the supematant for each sample was analyzed by reverse phase HPLC using isocratic elution and monitoring fluorescence. […] Concentration values were determined for unknown samples and quality control samples based on interpolation using a linear fit of the standard samples. In each study the average plasma concentration at each time point was calculated and utilized in the pharmacokinetic analysis. Noncompartmental analysis were carried out using WinNonlin™ (Standard Edition, version 1.5 ©, Scientific Consulting, Inc.) and the following parameters were calculated: the maximum concentration extrapolated at zero time (Cmax), the area under the curve from zero to infinite time (AUC total), the terminal phase half life (t½), the clearance rate (C1), and the volume of distribution at steady state (Vss).

U937 (Lymphoma) = assay: 3H-thymidine incorporation cytotoxicity assay, U937; format: cell-based, human; conditions: Homo sapiens, U-937; U937, 42 h; read-out: Median IC50
Method: (§1) In vitro efficacy screening has been performed using GI147211 and liposomal formulations of GI147211. […] Standard tumor cell-based cytototoxicity assays assessing ^3H-thymidine incorporation were performed.
(§2) Tumor cells were seeded into 96-well tissue culture plates (1×10^4 cells/well)≡4 h prior to experimentation. […] Positive and negative (Tris treated) control groups were included on each assay plate. Tumor cells were then labeled with 0.25 μCi of [methyl-^3H] thymidine and incubated for 42 h under tissue culture conditions (37° C., 5% CO2, 100% relative humidity), except for C6, U251, A673 and B16-F1 cells which were incubated for 24 h. Cells were then lysed, harvested onto glass-fiber filters and unincorporated [methyl-^3H] thymidine removed by filter washing. Filters were processed for scintillation counting and cpm-^3H/well determined. […] Data are presented from multiple sets of experimentation, involving multiple liposomal formulations of GI147211.

tumor cell = tumor cell cytotoxicity assays; cited from earlier work
MDR + , KBV Xenograft = assay: Repeat dose efficacy at equal toxic doses, KBV xenograft; format: in vivo, nude mice; conditions: days 1, 8 and 15
Method: (§3) Drugs were dosed on days 1,8 and 15.

[2] = system: SKOV-3 (ovarian carcinoma); assay: 3H-thymidine incorporation cytotoxicity assay, SKOV-3; format: cell-based, human; conditions: Homo sapiens, SK-OV-3; SKOV-3, 42 h; read-out: Median IC50
Method: as §1, §2

[3] = system: KB (oralpharyngial carcinoma); assay: 3H-thymidine incorporation cytotoxicity assay, KB; format: cell-based, human; conditions: Homo sapiens, 42 h, read-out: Median IC50
Method: as §1, §2

LOX (melanoma) = assay: 3H-thymidine incorporation cytotoxicity assay, LOX; format: cell-based, human; conditions: Homo sapiens, 42 h, read-out: Median IC50
Method: as §1, §2

MCF-7 (Breast) = assay: 3H-thymidine incorporation cytotoxicity assay, MCF-7; format: cell-based, human; conditions: Homo sapiens, MCF7; MCF-7, 42 h; read-out: Median IC50
Method: as §1, §2

KB Tumor Xenograft = assay: Repeat dose efficacy, KB xenograft; format: in vivo, nude mice; conditions: 14 mg/kg
Method: as §3

HT29 human colon tumor = assay: Xenograft efficacy at identical dose, HT29; format: in vivo; conditions: for Log 10 Cell Kill / T-C (time to reach 1,000% Tumor Volume, treated vs control): QD7 × 3; for % TGI: QD7 × 3, day 26
Method: (§4) In all the studies performed, subcutaneous tumors implanted on the anterior flank of nude mice were allowed to grow to an established size of 200+/−50 mm^3 prior to dosing drugs.
(§5) The xenograft models included the HT29 and SW48 human colon tumor lines, and the KB and KBV head-neck tumors. Drugs were dosed at either 6 or 9 mg/kg intravenously, on a weekly schedule for 3 consecutive weeks. In the SW48 xenograft study, the animals received a total of two cycles of therapy (6 injections), with a 10 day recovery period separating the two therapeutic courses. In the HT29 xenograft study a 12 and 14 mg/kg dose group was added.

A549 (lung carcinoma) = assay: 3H-thymidine incorporation cytotoxicity assay, A549; format: cell-based; conditions: Homo sapiens, A549, 42 h; read-out: Median IC50
Method: as §1, §2

A673 (Rhabdomyosarcoma) = assay: 3H-thymidine incorporation cytotoxicity assay, A673; format: cell-based, human; conditions: Homo sapiens, A673, 24 h; read-out: Median IC50
Method: as §1, §2

HT-29 (Colon) = assay: 3H-thymidine incorporation cytotoxicity assay, HT-29; format: cell-based, human; conditions: Homo sapiens, HT-29, 42 h; read-out: Median IC50
Method: as §1, §2

SW48 human colon tumor = assay: Xenograft efficacy at identical dose, SW48; format: in vivo, nude mice; conditions: SW48, 9 mg/kg, QD7 × 3, two cycles; for % TGI: day 35, dihydrochloride
Method: as §4, §5

ES2 Tumor Xenograft = assay: Repeat dose efficacy at equal toxic doses, ES2 xenograft; conditions: ES2, 14 mg/kg, days 1, 8 and 15
Method: as §4, §3

**Q.** Which AUC ([1]; 1 mg/kg) does the source give for CCC1(O)C(=O)OCc2c1cc1n(c2=O)Cc2c-1nc1cc3c(cc1c2CN1CCN(C)CC1)OCCO3 (stereo in doubt) [GI147211, 7-(4-methylpiperazinomethylene)-10,11-ethylenedioxy-20(S)-camptothecin dihydrochloride] here?
**A.** The AUC was 136 ng·h/mL.

**Q.** And the Cmax ([1]; 1 mg/kg)?
**A.** The Cmax was 100 ng/mL.

**Q.** What about the Vd ([1]; 1 mg/kg) of the same compound?
**A.** Its Vd is 9.23 L/kg.

**Q.** And the clearance ([1]; 1 mg/kg)?
**A.** The clearance was 123 mL/min/kg.

**Q.** And the half-life ([1]; 1 mg/kg)?
**A.** The half-life was 1.17 h.

**Q.** And the AUC ([1]; 5 mg/kg)?
**A.** The AUC was 640 ng·h/mL.

**Q.** And the Cmax ([1]; 5 mg/kg)?
**A.** Its Cmax is 690 ng/mL.

**Q.** And the clearance ([1]; 5 mg/kg)?
**A.** Its clearance is 132 mL/min/kg.

**Q.** What about the half-life ([1]; 5 mg/kg) of the same compound?
**A.** The half-life was 2.45 h.

**Q.** What about the IC50 (U937 (Lymphoma)) of the same compound?
**A.** The IC50 was 4.22 ng/mL.

**Q.** What about the “potency relative to topotecan” value (tumor cell) of the same compound?
**A.** The value was 5-10 times.

**Q.** And the “Days to 1000%” value (MDR + , KBV Xenograft; 12 mg/kg)?
**A.** Its value is 16.15 days.

**Q.** And the “Log 10 Cell Kill” value (MDR + , KBV Xenograft; 12 mg/kg)?
**A.** Its value is 0.53.

**Q.** What about the “T − C” value (MDR + , KBV Xenograft; 12 mg/kg) of the same compound?
**A.** The value was 7.58.

**Q.** And the “Toxic Deaths” value (MDR + , KBV Xenograft; 12 mg/kg)?
**A.** The value was 3.

**Q.** And the “Days to 1000%” value (MDR + , KBV Xenograft; 14 mg/kg)?
**A.** The value was 17 days.

**Q.** And the “Log 10 Cell Kill” value (MDR + , KBV Xenograft; 14 mg/kg)?
**A.** Its value is 0.59.

**Q.** What about the “T − C” value (MDR + , KBV Xenograft; 14 mg/kg) of the same compound?
**A.** Its value is 8.43.

**Q.** And the “Toxic Deaths” value (MDR + , KBV Xenograft; 14 mg/kg)?
**A.** Its value is 3.

**Q.** What about the “Days to 1000%” value (MDR + , KBV Xenograft; 16 mg/kg) of the same compound?
**A.** The value was 17 days.

**Q.** What about the “Log 10 Cell Kill” value (MDR + , KBV Xenograft; 16 mg/kg) of the same compound?
**A.** Its value is 0.59.

**Q.** And the “T − C” value (MDR + , KBV Xenograft; 16 mg/kg)?
**A.** Its value is 8.43.

**Q.** What about the “Toxic Deaths” value (MDR + , KBV Xenograft; 16 mg/kg) of the same compound?
**A.** Its value is 1.

**Q.** What about the IC50 [2] of the same compound?
**A.** The IC50 was 1.63 ng/mL.

**Q.** What about the IC50 [3] of the same compound?
**A.** The IC50 was 4.31 ng/mL.

**Q.** And the IC50 (LOX (melanoma))?
**A.** The IC50 was 1.41 ng/mL.

**Q.** And the IC50 (MCF-7 (Breast))?
**A.** Its IC50 is 44.1 ng/mL.

**Q.** What about the “% TGI” value (KB Tumor Xenograft; day 15) of the same compound?
**A.** The value was 83%.

**Q.** And the “Mean Tumor Volume +/− (SD)” value (KB Tumor Xenograft; days 1, 8 and 15)?
**A.** Its value is 275 (67).

**Q.** And the “Toxic Deaths” value (KB Tumor Xenograft; days 1, 8 and 15)?
**A.** The value was 0/8.

**Q.** And the “Log 10 Cell Kill” value (HT29 human colon tumor; HT29, 6 mg/kg iv)?
**A.** Its value is 0.753.

**Q.** What about the “T-C (time to reach 1,000% Tumor Volume, treated vs control)” value (HT29 human colon tumor; HT29, 6 mg/kg iv) of the same compound?
**A.** Its value is 12 days.

**Q.** What about the “% TGI” value (HT29 human colon tumor; HT29, 6 mg/kg iv) of the same compound?
**A.** The value was 48%.

**Q.** And the “Log 10 Cell Kill” value (HT29 human colon tumor; HT29, 9 mg/kg iv)?
**A.** Its value is 0.753.

**Q.** And the “T-C (time to reach 1,000% Tumor Volume, treated vs control)” value (HT29 human colon tumor; HT29, 9 mg/kg iv)?
**A.** The value was 12 days.

**Q.** And the “% TGI” value (HT29 human colon tumor; HT29, 9 mg/kg iv, dihydrochloride)?
**A.** Its value is 54%.

**Q.** And the “% TGI” value (HT29 human colon tumor; HT29, 9 mg/kg iv, listed as free drug, dihydrochloride)?
**A.** Its value is 54%.

**Q.** What about the “Log 10 Cell Kill” value (HT29 human colon tumor; HT29, 12 mg/kg iv) of the same compound?
**A.** Its value is 0.815.

**Q.** What about the “T-C (time to reach 1,000% Tumor Volume, treated vs control)” value (HT29 human colon tumor; HT29, 12 mg/kg iv) of the same compound?
**A.** Its value is 13 days.

**Q.** What about the “% TGI” value (HT29 human colon tumor; HT29, 12 mg/kg iv) of the same compound?
**A.** Its value is 70%.

**Q.** What about the “Log 10 Cell Kill” value (HT29 human colon tumor; HT29, 14 mg/kg iv) of the same compound?
**A.** Its value is 1.94.

**Q.** And the “T-C (time to reach 1,000% Tumor Volume, treated vs control)” value (HT29 human colon tumor; HT29, 14 mg/kg iv)?
**A.** Its value is 31 days.

**Q.** And the “% TGI” value (HT29 human colon tumor; HT29, 14 mg/kg iv)?
**A.** Its value is 78%.

**Q.** What about the IC50 (A549 (lung carcinoma)) of the same compound?
**A.** Its IC50 is 6.94 ng/mL.

**Q.** What about the IC50 (A673 (Rhabdomyosarcoma)) of the same compound?
**A.** The IC50 was 0.58 ng/mL.

**Q.** What about the IC50 (HT-29 (Colon)) of the same compound?
**A.** Its IC50 is 0.763 ng/mL.

**Q.** What about the “Log 10 Cell Kill” value (SW48 human colon tumor) of the same compound?
**A.** The value was 1.9.

**Q.** What about the “T-C (time to reach 1,000% Tumor Volume, treated vs control)” value (SW48 human colon tumor) of the same compound?
**A.** The value was 40 days.

**Q.** What about the “% TGI” value (SW48 human colon tumor) of the same compound?
**A.** Its value is 86%.

**Q.** And the “% TGI” value (SW48 human colon tumor; listed as free drug)?
**A.** The value was 86%.

**Q.** And the Cures (ES2 Tumor Xenograft)?
**A.** The Cures was 1.

**Q.** What about the “Log Cell Kill” value (ES2 Tumor Xenograft) of the same compound?
**A.** Its value is 2.14.

**Q.** And the “Maximum Body Weight loss” value (ES2 Tumor Xenograft)?
**A.** The value was 9%.

**Q.** What about the “T − C (to reach 400% tumor volume increase)” value (ES2 Tumor Xenograft) of the same compound?
**A.** Its value is 27 days.

**Q.** What about the “Toxic Deaths” value (ES2 Tumor Xenograft) of the same compound?
**A.** The value was 3.
